In patent US9079859B2, “Synthetic lethal targeting of glucose transport” (AUCKLAND UNISERVICES LIMITED, priority 2011, dated 2015):

Experiments:
Assay in all cases: Kinase Profiler
Format in all cases: biochemical
Conditions in all cases: STF-31 10 μM
[1] = biological target: T1, DAPK1 (Homo sapiens, UniProt P53355)
T1 construct: purchased Millipore (Kinase Profiler service)
Description: (§1) Cell Culture and Reagents. All cells were grown in DMEM+10% FCS. ACHN and ACHN shVHL were a kind gift from George V. Thomas (UCLA). HIF overexpressing clones were described previously (Sutphin et al., Cancer Res, 67:5896-5905 (2007)). Transfection of RNA oligos were performed with DnarmaFECT Reagent 1 (Dharmcon), according to manufacturer's directions. ON-TARGETplus SMART pools against HIF-1 R/ARNT were purchased from Dharmacon. Inducible shRNAmir to GLUT1 was purchased from Open Biosystems. GLUT1 was detected with anti-GLUT1 antibody from NeoMarkers/LabVision/Fisher. For immunofluorescent studies, GLUT1, GLUT2, and GLUT3 antibodies were purchased from R&D. Pyruvate/lactate levels and hexokinase activity were both measured by fluorometric assay (BioVision and Sigma-Aldrich, respectively). ATP levels were measured by bioluminescence assay (ATP Determination Kit from Molecular Probes/Invitrogen). In vitro kinase activities were performed by Millipore Kinase Profiler.

[2] = biological target: T2, Abl (Homo sapiens, UniProt P00519)
T2 construct: purchased Millipore (Kinase Profiler service)
T2 sequence (P00519 whole entry, species assumed): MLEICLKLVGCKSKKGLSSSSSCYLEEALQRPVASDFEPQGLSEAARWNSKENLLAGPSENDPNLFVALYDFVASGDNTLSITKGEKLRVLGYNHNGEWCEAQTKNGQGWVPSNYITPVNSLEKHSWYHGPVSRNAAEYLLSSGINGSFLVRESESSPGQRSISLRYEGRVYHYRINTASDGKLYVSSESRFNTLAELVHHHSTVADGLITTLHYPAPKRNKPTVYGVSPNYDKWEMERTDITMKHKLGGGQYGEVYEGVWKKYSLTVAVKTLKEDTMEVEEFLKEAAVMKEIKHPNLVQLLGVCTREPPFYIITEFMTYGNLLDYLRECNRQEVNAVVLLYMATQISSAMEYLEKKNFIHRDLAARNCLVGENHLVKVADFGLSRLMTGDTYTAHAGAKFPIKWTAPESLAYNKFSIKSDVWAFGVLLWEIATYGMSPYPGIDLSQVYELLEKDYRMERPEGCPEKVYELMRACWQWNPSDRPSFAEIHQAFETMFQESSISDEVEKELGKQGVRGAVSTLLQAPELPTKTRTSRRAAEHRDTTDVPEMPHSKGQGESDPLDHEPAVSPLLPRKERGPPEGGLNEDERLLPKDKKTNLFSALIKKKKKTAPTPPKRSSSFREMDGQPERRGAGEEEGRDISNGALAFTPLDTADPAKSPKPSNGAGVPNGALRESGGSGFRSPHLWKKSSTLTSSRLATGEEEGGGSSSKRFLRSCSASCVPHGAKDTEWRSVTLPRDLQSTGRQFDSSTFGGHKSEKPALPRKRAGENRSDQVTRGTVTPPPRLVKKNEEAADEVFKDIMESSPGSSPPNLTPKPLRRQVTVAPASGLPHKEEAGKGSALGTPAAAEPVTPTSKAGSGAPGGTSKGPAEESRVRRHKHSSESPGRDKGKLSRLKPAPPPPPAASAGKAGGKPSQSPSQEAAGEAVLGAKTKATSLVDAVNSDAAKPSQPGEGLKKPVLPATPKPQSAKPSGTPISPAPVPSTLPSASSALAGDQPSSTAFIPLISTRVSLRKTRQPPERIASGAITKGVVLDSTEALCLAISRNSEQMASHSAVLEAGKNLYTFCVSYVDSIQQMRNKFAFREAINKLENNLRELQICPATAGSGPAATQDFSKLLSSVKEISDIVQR
Description: as §1

[3] = biological target: T3, cKit(D816H) (Homo sapiens, UniProt P10721, D816H)
T3 construct: purchased Millipore (Kinase Profiler service)
Description: as §1

[4] = biological target: T4, CHK1 (Homo sapiens, UniProt O14757)
T4 construct: purchased Millipore (Kinase Profiler service)
Description: as §1

[5] = biological target: T5, Pim-2 (Homo sapiens, UniProt Q9P1W9)
T5 construct: purchased Millipore Kinase Profiler
T5 sequence (Q9P1W9 whole entry, species assumed): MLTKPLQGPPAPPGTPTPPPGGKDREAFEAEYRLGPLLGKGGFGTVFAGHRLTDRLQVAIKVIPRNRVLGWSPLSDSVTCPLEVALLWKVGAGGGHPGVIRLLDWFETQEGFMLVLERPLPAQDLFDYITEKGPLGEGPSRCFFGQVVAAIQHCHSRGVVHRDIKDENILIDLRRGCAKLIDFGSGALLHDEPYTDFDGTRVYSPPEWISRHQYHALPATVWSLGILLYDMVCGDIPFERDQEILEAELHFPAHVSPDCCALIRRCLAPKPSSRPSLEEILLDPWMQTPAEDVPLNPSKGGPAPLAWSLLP
Description: as §1

[6] = biological target: T6, MEK1 (Homo sapiens, UniProt Q02750)
T6 construct: purchased Millipore Kinase Profiler
T6 sequence (Q02750 whole entry, species assumed): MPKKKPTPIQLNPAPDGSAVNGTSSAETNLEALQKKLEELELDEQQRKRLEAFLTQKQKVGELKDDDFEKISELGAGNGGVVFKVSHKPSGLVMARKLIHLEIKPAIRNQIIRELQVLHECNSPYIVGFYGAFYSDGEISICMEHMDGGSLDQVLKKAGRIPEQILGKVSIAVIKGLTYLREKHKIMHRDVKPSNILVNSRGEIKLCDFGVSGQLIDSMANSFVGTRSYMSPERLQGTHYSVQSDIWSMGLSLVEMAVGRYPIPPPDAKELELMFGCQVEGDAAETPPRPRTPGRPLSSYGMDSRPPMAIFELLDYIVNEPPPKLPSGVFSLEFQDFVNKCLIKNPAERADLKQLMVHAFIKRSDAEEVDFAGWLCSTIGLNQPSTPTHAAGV
Description: as §1

[7] = biological target: T7, CDK1/cyclinB (Homo sapiens, UniProt P06493)
T7 construct: purchased Millipore (Kinase Profiler service)
Description: as §1

[8] = biological target: AMPK
Description: as §1

[9] = biological target: PI3K
Description: as §1

[10] = biological target: T8, CSK (Homo sapiens, UniProt P41240)
T8 construct: purchased Millipore (Kinase Profiler service)
Description: as §1

[11] = biological target: T9, PKCδ (Homo sapiens, UniProt Q05655)
T9 construct: purchased Millipore (Kinase Profiler service)
Description: as §1

[12] = biological target: T10, IR (Homo sapiens, UniProt P06213)
T10 construct: purchased Millipore Kinase Profiler
Description: as §1

[13] = biological target: T11, MLK1 (Homo sapiens, UniProt P80192)
T11 construct: purchased Millipore Kinase Profiler
Description: as §1

[14] = biological target: T12, Fyn (Homo sapiens, UniProt P06241)
T12 construct: purchased Millipore Kinase Profiler
Description: as §1

[15] = biological target: T13, PKA (Homo sapiens, UniProt P17612)
T13 construct: purchased Millipore Kinase Profiler
Description: as §1

[16] = biological target: T14, MAPKAP-K2 (Homo sapiens, UniProt P49137)
T14 construct: purchased Millipore Kinase Profiler
Description: as §1

[17] = biological target: T15, IRAK1 (Homo sapiens, UniProt P51617)
T15 construct: purchased Millipore Kinase Profiler
Description: as §1

[18] = biological target: T16, FGFR1 (Homo sapiens, UniProt P11362)
T16 construct: purchased Millipore Kinase Profiler
Description: as §1

[19] = biological target: T17, c-RAF (Homo sapiens, UniProt P04049)
T17 construct: purchased Millipore (Kinase Profiler service)
Description: as §1

[20] = biological target: T18, NEK2 (Homo sapiens, UniProt P51955)
T18 construct: purchased Millipore Kinase Profiler
Description: as §1

[21] = biological target: T19, CDK6/cyclinD3 (Homo sapiens, UniProt Q00534)
T19 construct: purchased Millipore (Kinase Profiler service)
Description: as §1

[22] = biological target: T20, MKK4 (Mus musculus, UniProt P47809)
T20 construct: purchased Millipore Kinase Profiler
T20 sequence (P47809 2-397 limits assumed): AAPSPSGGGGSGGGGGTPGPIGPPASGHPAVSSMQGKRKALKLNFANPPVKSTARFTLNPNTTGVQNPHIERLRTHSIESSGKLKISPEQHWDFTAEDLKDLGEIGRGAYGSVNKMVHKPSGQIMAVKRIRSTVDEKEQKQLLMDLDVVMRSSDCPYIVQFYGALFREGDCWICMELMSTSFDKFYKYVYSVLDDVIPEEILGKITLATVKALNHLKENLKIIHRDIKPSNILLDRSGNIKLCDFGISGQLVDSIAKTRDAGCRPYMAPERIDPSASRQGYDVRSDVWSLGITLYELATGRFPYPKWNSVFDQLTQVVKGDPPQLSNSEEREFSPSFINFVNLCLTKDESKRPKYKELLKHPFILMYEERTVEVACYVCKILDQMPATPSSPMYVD
Description: as §1

[23] = biological target: T21, Rsk1 (Homo sapiens, UniProt Q15418)
T21 construct: purchased Millipore (Kinase Profiler service)
Description: as §1

[24] = biological target: T22, Plk3 (Homo sapiens, UniProt Q9H4B4)
T22 construct: purchased Millipore (Kinase Profiler service)
Description: as §1

[25] = biological target: T23, PKBα (Homo sapiens, UniProt P31749)
T23 construct: purchased Millipore Kinase Profiler
T23 sequence (P31749 whole entry, species assumed): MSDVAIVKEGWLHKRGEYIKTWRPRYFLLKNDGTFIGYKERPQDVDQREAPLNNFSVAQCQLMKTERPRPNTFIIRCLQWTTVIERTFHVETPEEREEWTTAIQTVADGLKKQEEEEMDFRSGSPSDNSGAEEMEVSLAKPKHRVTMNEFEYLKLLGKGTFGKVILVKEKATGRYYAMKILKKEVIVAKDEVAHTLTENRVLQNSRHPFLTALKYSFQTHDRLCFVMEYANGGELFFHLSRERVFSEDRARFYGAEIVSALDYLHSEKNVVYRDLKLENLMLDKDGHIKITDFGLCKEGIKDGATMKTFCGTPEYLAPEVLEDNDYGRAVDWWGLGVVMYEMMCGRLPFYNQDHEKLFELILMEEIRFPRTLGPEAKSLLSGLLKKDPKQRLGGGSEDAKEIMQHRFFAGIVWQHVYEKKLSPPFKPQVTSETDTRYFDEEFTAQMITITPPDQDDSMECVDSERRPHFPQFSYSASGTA
Description: as §1

[26] = biological target: T24, GSK3α (Homo sapiens, UniProt P49840)
T24 construct: purchased Millipore Kinase Profiler
Description: as §1

[27] = biological target: T25, cSRC (Homo sapiens, UniProt P12931)
T25 construct: purchased Millipore (Kinase Profiler service)
T25 sequence (P12931 whole entry, species assumed): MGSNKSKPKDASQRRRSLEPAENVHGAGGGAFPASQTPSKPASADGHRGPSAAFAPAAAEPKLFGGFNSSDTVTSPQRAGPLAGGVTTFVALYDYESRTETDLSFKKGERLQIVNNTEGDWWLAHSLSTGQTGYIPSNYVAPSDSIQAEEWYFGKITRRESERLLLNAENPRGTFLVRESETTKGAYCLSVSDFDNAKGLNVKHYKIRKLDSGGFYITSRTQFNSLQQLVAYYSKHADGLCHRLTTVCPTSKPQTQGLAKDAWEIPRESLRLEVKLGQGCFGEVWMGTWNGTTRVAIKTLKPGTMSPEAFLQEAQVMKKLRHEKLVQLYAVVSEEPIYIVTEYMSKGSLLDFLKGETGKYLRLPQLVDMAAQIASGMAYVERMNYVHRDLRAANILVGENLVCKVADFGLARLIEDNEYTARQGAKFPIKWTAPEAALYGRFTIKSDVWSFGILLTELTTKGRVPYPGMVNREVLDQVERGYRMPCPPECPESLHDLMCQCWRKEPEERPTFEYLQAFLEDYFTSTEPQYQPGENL
Description: as §1

[28] = biological target: T26, ASK1 (Homo sapiens, UniProt Q99683)
T26 construct: purchased Millipore (Kinase Profiler service)
Description: as §1

[29] = biological target: T27, CaMKI (Homo sapiens, UniProt Q14012)
T27 construct: purchased Millipore (Kinase Profiler service)
Description: as §1

[30] = biological target: T28, JNK1α1 (Homo sapiens, UniProt P45983)
T28 construct: purchased Millipore Kinase Profiler
Description: as §1

[31] = biological target: T29, Tie2 (Homo sapiens, UniProt Q02763)
T29 construct: purchased Millipore (Kinase Profiler service)
Description: as §1

[32] = biological target: T30, Aurora-A (Homo sapiens, UniProt O14965)
T30 construct: purchased Millipore (Kinase Profiler service)
Description: as §1

[33] = biological target: T31, Met (Homo sapiens, UniProt P08581)
T31 construct: purchased Millipore Kinase Profiler
T31 sequence (P08581 25-1390): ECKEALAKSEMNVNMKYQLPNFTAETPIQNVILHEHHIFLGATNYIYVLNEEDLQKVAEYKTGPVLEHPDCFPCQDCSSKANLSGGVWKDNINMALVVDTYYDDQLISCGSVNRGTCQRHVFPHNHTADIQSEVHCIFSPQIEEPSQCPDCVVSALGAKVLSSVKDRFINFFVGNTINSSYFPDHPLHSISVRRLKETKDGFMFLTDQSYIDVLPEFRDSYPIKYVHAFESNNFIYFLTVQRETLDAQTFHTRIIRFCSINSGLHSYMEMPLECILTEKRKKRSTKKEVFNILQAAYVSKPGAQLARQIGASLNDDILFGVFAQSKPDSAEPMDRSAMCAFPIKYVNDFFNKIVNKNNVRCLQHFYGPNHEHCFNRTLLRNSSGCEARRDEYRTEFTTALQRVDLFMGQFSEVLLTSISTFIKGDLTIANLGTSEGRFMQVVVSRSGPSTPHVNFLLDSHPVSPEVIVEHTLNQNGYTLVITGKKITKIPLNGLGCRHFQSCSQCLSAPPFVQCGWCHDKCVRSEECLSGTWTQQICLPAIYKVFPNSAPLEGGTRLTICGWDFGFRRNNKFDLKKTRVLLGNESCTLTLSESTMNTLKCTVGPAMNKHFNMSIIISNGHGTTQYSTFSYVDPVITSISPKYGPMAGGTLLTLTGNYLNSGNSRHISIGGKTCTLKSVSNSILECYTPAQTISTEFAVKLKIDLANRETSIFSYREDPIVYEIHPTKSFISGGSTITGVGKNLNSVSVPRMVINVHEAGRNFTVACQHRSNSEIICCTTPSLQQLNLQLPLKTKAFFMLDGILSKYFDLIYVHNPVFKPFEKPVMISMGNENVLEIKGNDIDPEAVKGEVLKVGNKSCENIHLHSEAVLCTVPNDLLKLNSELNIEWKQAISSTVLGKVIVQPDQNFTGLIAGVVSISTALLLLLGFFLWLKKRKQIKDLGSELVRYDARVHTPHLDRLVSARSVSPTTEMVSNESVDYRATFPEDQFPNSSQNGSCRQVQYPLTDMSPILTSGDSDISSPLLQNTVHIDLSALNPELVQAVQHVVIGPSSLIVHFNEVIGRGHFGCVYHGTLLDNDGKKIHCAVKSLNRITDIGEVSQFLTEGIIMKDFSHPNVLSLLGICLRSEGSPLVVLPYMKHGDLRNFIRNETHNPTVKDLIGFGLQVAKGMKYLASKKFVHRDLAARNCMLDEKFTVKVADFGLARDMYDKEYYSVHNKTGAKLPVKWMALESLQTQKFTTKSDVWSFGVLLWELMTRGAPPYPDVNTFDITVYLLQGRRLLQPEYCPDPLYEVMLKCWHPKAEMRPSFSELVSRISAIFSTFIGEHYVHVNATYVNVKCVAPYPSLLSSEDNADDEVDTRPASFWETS
Description: as §1

[34] = biological target: T32, ROCK-I (Homo sapiens, UniProt Q13464)
T32 construct: purchased Millipore (Kinase Profiler service)
Description: as §1

[35] = biological target: T33, Flt3 (Homo sapiens, UniProt P36888)
T33 construct: purchased Millipore Kinase Profiler
Description: as §1

[36] = biological target: T34, CK1γ1 (Homo sapiens, UniProt Q9HCP0)
T34 construct: purchased Millipore (Kinase Profiler service)
T34 sequence (Q9HCP0 whole entry): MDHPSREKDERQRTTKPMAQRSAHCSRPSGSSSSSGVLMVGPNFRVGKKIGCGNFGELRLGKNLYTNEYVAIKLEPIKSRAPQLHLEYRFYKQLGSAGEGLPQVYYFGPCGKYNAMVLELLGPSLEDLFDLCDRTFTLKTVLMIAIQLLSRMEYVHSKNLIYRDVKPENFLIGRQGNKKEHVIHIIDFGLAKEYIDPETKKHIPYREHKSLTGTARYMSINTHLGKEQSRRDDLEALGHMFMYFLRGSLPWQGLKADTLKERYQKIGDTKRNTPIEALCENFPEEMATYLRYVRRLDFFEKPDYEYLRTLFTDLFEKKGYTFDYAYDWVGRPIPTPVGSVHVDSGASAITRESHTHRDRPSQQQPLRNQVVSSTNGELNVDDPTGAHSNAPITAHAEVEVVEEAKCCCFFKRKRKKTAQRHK
Description: as §1

[37] = biological target: T35, TrkA (Homo sapiens, UniProt P04629)
T35 construct: purchased Millipore (Kinase Profiler service)
Description: as §1

[38] = biological target: T36, PDK1 (Homo sapiens, UniProt O15530)
T36 construct: purchased Millipore Kinase Profiler
Description: as §1

CC(C)(C)c1ccc(S(=O)(=O)NCc2ccc(C(=O)Nc3cccnc3)cc2)cc1 [STF-31]
Kinase response to STF-31 [1]: 92 | Kinase response to STF-31 [2]: 108 | Kinase response to STF-31 [3]: 99 | Kinase response to STF-31 [4]: 114 | Kinase response to STF-31 [5]: 112 | Kinase response to STF-31 [6]: 99 | Kinase response to STF-31 [7]: 96 | Kinase response to STF-31 [8]: 92 | Kinase response to STF-31 [9]: 97 | Kinase response to STF-31 [10]: 99 | Kinase response to STF-31 [11]: 116 | Kinase response to STF-31 [12]: 121 | Kinase response to STF-31 [13]: 97 | Kinase response to STF-31 [14]: 91 | Kinase response to STF-31 [15]: 96 | Kinase response to STF-31 [16]: 87 | Kinase response to STF-31 [17]: 105 | Kinase response to STF-31 [18]: 107 | Kinase response to STF-31 [19]: 103 | Kinase response to STF-31 [20]: 103 | Kinase response to STF-31 [21]: 105 | Kinase response to STF-31 [22]: 128 | Kinase response to STF-31 [23]: 120 | Kinase response to STF-31 [24]: 104 | Kinase response to STF-31 [25]: 99 | Kinase response to STF-31 [26]: 134 | Kinase response to STF-31 [27]: 104 | Kinase response to STF-31 [28]: 129 | Kinase response to STF-31 [29]: 87 | Kinase response to STF-31 [30]: 101 | Kinase response to STF-31 [31]: 111 | Kinase response to STF-31 [32]: 108 | Kinase response to STF-31 [33]: 105 | Kinase response to STF-31 [34]: 74 | Kinase response to STF-31 [35]: 111 | Kinase response to STF-31 [36]: 85 | Kinase response to STF-31 [37]: 124 | Kinase response to STF-31 [38]: 105
